Legend:
[1] = biological target: Human immunodeficiency virus type 1 reverse transcriptase (Human immunodeficiency virus 1) (UniProt Q72547); test: Inhibition of HIV-1 reverse transcriptase at 0.267 uM incubated for 1 hrs in presence of biotin-labeled dNTPs by ELISA assay relative to control
[2] = system: Human immunodeficiency virus 1; test: Antiviral activity against HIV-1 harboring RT L100I mutant infected in human MT4 cells assessed as protection against virus-induced cytopathic effect measured after 5 days by MTT assay; assay type: functional, organism-based; conditions: Human immunodeficiency virus 1, MT4, 120 h
[3] = system: Human immunodeficiency virus 1; test: Antiviral activity against HIV-1 harboring RT K103N mutant infected in human MT4 cells assessed as protection against virus-induced cytopathic effect measured after 5 days by MTT assay; assay type: functional, organism-based; conditions: Human immunodeficiency virus 1, MT4, 120 h
[4] = system: Human immunodeficiency virus 1; test: Antiviral activity against HIV-1 harboring RT Y181C mutant infected in human MT4 cells assessed as protection against virus-induced cytopathic effect measured after 5 days by MTT assay; assay type: functional, organism-based; conditions: Human immunodeficiency virus 1, MT4, 120 h
[5] = system: Human immunodeficiency virus 1; test: Antiviral activity against HIV-1 harboring RT Y188L mutant infected in human MT4 cells assessed as protection against virus-induced cytopathic effect measured after 5 days by MTT assay; assay type: functional, organism-based; conditions: Human immunodeficiency virus 1, MT4, 120 h
[6] = system: Human immunodeficiency virus 1; test: Antiviral activity against HIV-1 harboring RT F227L/V106A double mutant infected in human MT4 cells assessed as protection against virus-induced cytopathic effect measured after 5 days by MTT assay; assay type: functional, organism-based; conditions: Human immunodeficiency virus 1, MT4, 120 h
[7] = system: Human immunodeficiency virus 1; test: Antiviral activity against HIV-1 harboring RT RES056 mutant infected in human MT4 cells assessed as protection against virus-induced cytopathic effect measured after 5 days by MTT assay; assay type: functional, organism-based; conditions: Human immunodeficiency virus 1, MT4, 120 h
[8] = Cytotoxicity against human MT4 cells assessed as reduction in cell viability measured after 5 days by MTT assay; assay type: toxicity, cell-based; conditions: time 5 day
[9] = biological target: Human immunodeficiency virus type 1 reverse transcriptase (Human immunodeficiency virus 1, UniProt Q72547); test: Inhibition of HIV-1 reverse transcriptase incubated for 1 hrs in presence of biotin-labeled dNTPs by ELISA assay
[10] = system: Human immunodeficiency virus 1; test: Antiviral activity against wild type HIV-1 IIIB infected in human MT4 cells assessed as protection against virus-induced cytopathic effect measured after 5 days by MTT assay; assay type: functional, organism-based; conditions: Human immunodeficiency virus 1, IIIB, MT4, 120 h
[11] = system: Human immunodeficiency virus 1; test: Antiviral activity against HIV-1 harboring RT E138K mutant infected in human MT4 cells assessed as protection against virus-induced cytopathic effect measured after 5 days by MTT assay; assay type: functional, organism-based; conditions: Human immunodeficiency virus 1, MT4, 120 h

Cc1cc(C#N)cc(C)c1Oc1nc(Nc2ccc(-c3cn(CS(=O)(=O)c4ccccc4)nn3)cc2)nc2ccsc12
inhibition [1]: 25.6%

Cc1cc(C#N)cc(C)c1Oc1nc(Nc2ccc(-c3cn(CC(=O)NC4CC4)nn3)cc2)nc2ccsc12
inhibition [1]: 29.7%

COc1cccc(Cn2cc(-c3ccc(Nc4nc(Oc5c(C)cc(C#N)cc5C)c5sccc5n4)cc3)nn2)c1
inhibition [1]: 0.4%

Cc1cc(C#N)cc(C)c1Oc1nc(Nc2ccc(-c3cn(-c4cc5ccccc5s4)nn3)cc2)nc2ccsc12
inhibition [1]: 0.1%

Cc1ccc(Cn2cc(-c3ccc(Nc4nc(Oc5c(C)cc(C#N)cc5C)c5sccc5n4)cc3)nn2)cc1
inhibition [1]: 3.5%

O=C1Nc2ccc(Cl)cc2[C@@](C#CC2CC2)(C(F)(F)F)O1 [EFAVIRENZ]
EC50 [2]: 80 nM | EC50 [3]: 130 nM | EC50 [4]: 0.008 µM | EC50 [5]: 0.43 µM | EC50 [6]: 0.5 µM | EC50 [7]: 0.43 µM | CC50 at 120 h [8]: > 635 µM

Cc1ccccc1Cn1cc(-c2ccc(Nc3nc(Oc4c(C)cc(C#N)cc4C)c4sccc4n3)cc2)nn1
inhibition [1]: 33.3%

Cc1cc(C#N)cc(C)c1Oc1nc(Nc2ccc(-c3cn(Cc4ccccc4Cl)nn3)cc2)nc2ccsc12
inhibition [1]: 23.1%

Cc1cc(C#N)cc(C)c1Oc1nc(Nc2ccc(-c3cn(CC(=O)N4CCOCC4)nn3)cc2)nc2ccsc12
inhibition [1]: 21.8%

Cc1cc(C#N)cc(C)c1Oc1nc(Nc2ccc(-c3cn(-c4ccc(C(N)=O)cc4)nn3)cc2)nc2ccsc12
inhibition [1]: 66.9% | IC50 [9]: 800 nM | EC50 [10]: 150 nM | EC50 [2]: > 164000 nM | EC50 [3]: 250 nM | EC50 [4]: > 164 µM | EC50 [5]: > 164 µM | EC50 [11]: 920 nM | EC50 [6]: > 164 µM | EC50 [7]: > 164 µM | CC50 at 120 h [8]: 164 µM

Cc1cc(C#N)cc(C)c1Oc1nc(Nc2ccc(-c3cn(Cc4ccccc4C#N)nn3)cc2)nc2ccsc12
inhibition [1]: 0.2%

Cc1cc(C#N)cc(C)c1Oc1nc(Nc2ccc(-c3cn(Cc4cccc5ccccc45)nn3)cc2)nc2ccsc12
inhibition [1]: 35.9%

COC(=O)c1cccc(-n2cc(-c3ccc(Nc4nc(Oc5c(C)cc(C#N)cc5C)c5sccc5n4)cc3)nn2)c1
inhibition [1]: 42.4% | IC50 [9]: 650 nM | EC50 [10]: 1260 nM | EC50 [2]: 7400 nM | EC50 [3]: 1750 nM | EC50 [4]: 24.2 µM | EC50 [5]: 58.4 µM | EC50 [11]: 4980 nM | EC50 [6]: 23.3 µM | EC50 [7]: ≥ 154 µM | CC50 at 120 h [8]: > 218 µM

Cc1cc(C#N)cc(C)c1Oc1nc(Nc2ccc(-c3cn(Cc4ccc(C#N)cc4)nn3)cc2)nc2ccsc12
inhibition [1]: 36.9%

Cc1cc(C#N)cc(C)c1Oc1nc(Nc2ccc(-c3cn(Cc4ccccc4[N+](=O)[O-])nn3)cc2)nc2ccsc12
inhibition [1]: 24.8%

Cc1cc(C#N)cc(C)c1Oc1nc(Nc2ccc(-c3cn(Cc4ccc(Cl)cc4)nn3)cc2)nc2ccsc12
inhibition [1]: 44.7% | IC50 [9]: 320 nM | EC50 [10]: 550 nM | EC50 [2]: 73200 nM | EC50 [3]: 1110 nM | EC50 [4]: 202 µM | EC50 [5]: > 222 µM | EC50 [11]: 1080 nM | EC50 [6]: 106 µM | EC50 [7]: > 222 µM | CC50 at 120 h [8]: > 222 µM

Cc1cc(C#N)cc(C)c1Oc1nc(Nc2ccc(-c3cn(Cc4ccc(C(F)(F)F)cc4)nn3)cc2)nc2ccsc12
inhibition [1]: 74.2% | IC50 [9]: 450 nM | EC50 [10]: 190 nM | EC50 [2]: 840 nM | EC50 [3]: 330 nM | EC50 [4]: 2.39 µM | EC50 [5]: 3.12 µM | EC50 [11]: 690 nM | EC50 [6]: 8.88 µM | EC50 [7]: 25.5 µM | CC50 at 120 h [8]: 88.2 µM

Cc1cc(C#N)cc(C)c1Oc1nc(Nc2ccc(-c3cn(-c4ccc(C(C)(C)C)cc4)nn3)cc2)nc2ccsc12
inhibition [1]: 23.9%

Cc1cc(C#N)cc(C)c1Oc1nc(Nc2ccc(-c3cn(Cc4ccc(B(O)O)cc4)nn3)cc2)nc2ccsc12
inhibition [1]: 50.8% | IC50 [9]: 420 nM | EC50 [10]: 160 nM | EC50 [2]: 2450 nM | EC50 [3]: 410 nM | EC50 [4]: 4.87 µM | EC50 [5]: 3.17 µM | EC50 [11]: 650 nM | EC50 [6]: 4.09 µM | EC50 [7]: ≥ 5.55 µM | CC50 at 120 h [8]: 13.4 µM

Cc1cc(C#N)cc(C)c1Oc1nc(Nc2ccc(-c3cn([C@H]4C[C@@H](n5cc(C)c(=O)[nH]c5=O)O[C@@H]4CO)nn3)cc2)nc2ccsc12
inhibition [1]: 24.8%

Cc1cc(C#N)cc(C)c1Oc1nc(Nc2ccc(-c3cn(Cc4cccc(C#N)c4)nn3)cc2)nc2ccsc12
inhibition [1]: 24.7%

Cc1cc(C#N)cc(C)c1Oc1nc(Nc2ccc(-c3cn(-c4ccc(CO)cc4)nn3)cc2)nc2ccsc12
inhibition [1]: 34.7%

Cc1cc(C)c(-n2cc(-c3ccc(Nc4nc(Oc5c(C)cc(C#N)cc5C)c5sccc5n4)cc3)nn2)c(C)c1
inhibition [1]: 4.9%

Cc1cc(C#N)cc(C)c1Oc1nc(Nc2ccc(-c3cn(Cc4ccc(C(F)(F)F)cc4F)nn3)cc2)nc2ccsc12
inhibition [1]: 63.6% | IC50 [9]: 1090 nM | EC50 [10]: 810 nM | EC50 [2]: 2360 nM | EC50 [3]: 1310 nM | EC50 [4]: 3.69 µM | EC50 [5]: 18.6 µM | EC50 [11]: 2450 nM | EC50 [6]: 21.8 µM | EC50 [7]: 34.4 µM | CC50 at 120 h [8]: 129 µM

Cc1cc(C#N)cc(C)c1Oc1nc(Nc2ccc(-c3cn(CCc4ccccc4)nn3)cc2)nc2ccsc12
inhibition [1]: 27.1%

Cc1ccnc2c1NC(=O)c1cccnc1N2C1CC1 [NEVIRAPINE]
EC50 [10]: 100 nM | EC50 [2]: 1450 nM | EC50 [3]: 4930 nM | EC50 [4]: 5.66 µM | EC50 [5]: > 951 µM | EC50 [11]: 130 nM | EC50 [6]: > 951 µM | EC50 [7]: > 951 µM | CC50 at 120 h [8]: > 951 µM

Cc1cc(C#N)cc(C)c1Oc1nc(Nc2ccc(-c3cn(CC(=O)Nc4ccc(C(F)(F)F)cc4)nn3)cc2)nc2ccsc12
inhibition [1]: 43.8% | IC50 [9]: 2730 nM | EC50 [10]: 2060 nM | EC50 [2]: 2500 nM | EC50 [3]: 2830 nM | EC50 [4]: 5.5 µM | EC50 [5]: 17.5 µM | EC50 [11]: 6680 nM | EC50 [6]: 18.7 µM | EC50 [7]: 23.4 µM | CC50 at 120 h [8]: > 195 µM

Cc1cc(C#N)cc(C)c1Oc1nc(Nc2ccc(-c3cn(CC(=O)Nc4ccc(Br)cc4)nn3)cc2)nc2ccsc12
inhibition [1]: 4.1%

Cc1cc(C#N)cc(C)c1Oc1nc(Nc2ccc(-c3cn(C[S+]([O-])c4ccccc4)nn3)cc2)nc2ccsc12 (stereo not given)
inhibition [1]: 24.9%

Cc1cc(C#N)cc(C)c1Oc1nc(Nc2ccc(-c3cn(CSc4ccccc4)nn3)cc2)nc2ccsc12
inhibition [1]: 31.9%

Cc1cn([C@H]2C[C@H](N=[N+]=[N-])[C@@H](CO)O2)c(=O)[nH]c1=O [ZIDOVUDINE]
EC50 [10]: 30 nM | EC50 [3]: 30 nM | EC50 [4]: 0.03 µM | EC50 [5]: 0.03 µM | EC50 [11]: 40 nM | EC50 [6]: 0.02 µM | EC50 [7]: 0.03 µM | CC50 at 120 h [8]: > 749 µM

Cc1cc(C#N)cc(C)c1Oc1nc(Nc2ccc(-c3cn(-c4ccc(C(=O)O)cc4Cl)nn3)cc2)nc2ccsc12
inhibition [1]: 17.3%

Cc1cc(C#N)cc(C)c1Oc1nc(Nc2ccc(-c3cn(CC(=O)N4CCCC4)nn3)cc2)nc2ccsc12
inhibition [1]: 12.8%

Cc1cc(C#N)cc(C)c1Oc1nc(Nc2ccc(-c3cn(CC(=O)Nc4ccc(S(C)(=O)=O)cc4)nn3)cc2)nc2ccsc12
inhibition [1]: 23.4%

Cc1cc(C#N)cc(C)c1Oc1nc(Nc2ccc(-c3cn(Cc4ccc5ccccc5c4)nn3)cc2)nc2ccsc12
inhibition [1]: 1.5%

Cc1cc(C#N)cc(C)c1Oc1nc(Nc2ccc(C#N)cc2)nc(N)c1Br [ETRAVIRINE]
inhibition [1]: 56.4% | EC50 [2]: 10 nM | EC50 [3]: 4 nM | EC50 [11]: 20 nM | EC50 [6]: 0.03 µM | EC50 [7]: 0.07 µM | CC50 at 120 h [8]: > 461 µM

CCOC(=O)Cn1cc(-c2ccc(Nc3nc(Oc4c(C)cc(C#N)cc4C)c4sccc4n3)cc2)nn1
inhibition [1]: 31.2%

Cc1cccc(Cn2cc(-c3ccc(Nc4nc(Oc5c(C)cc(C#N)cc5C)c5sccc5n4)cc3)nn2)c1
inhibition [1]: 21%

Cc1cc(C#N)cc(C)c1Oc1nc(Nc2ccc(-c3cn(Cc4cccc(Cl)c4)nn3)cc2)nc2ccsc12
inhibition [1]: 28.4%

Cc1cc(C#N)cc(C)c1Oc1nc(Nc2ccc(-c3cn(-c4ccc(C(=O)O)cc4)nn3)cc2)nc2ccsc12
inhibition [1]: 38.2%

COc1ccc(-n2cc(-c3ccc(Nc4nc(Oc5c(C)cc(C#N)cc5C)c5sccc5n4)cc3)nn2)cc1
inhibition [1]: 28%

Cc1cc(C#N)cc(C)c1Oc1nc(Nc2ccc(-c3cn(Cc4ccc([N+](=O)[O-])cc4)nn3)cc2)nc2ccsc12
inhibition [1]: 1.6%

COC(=O)CCCn1cc(-c2ccc(Nc3nc(Oc4c(C)cc(C#N)cc4C)c4sccc4n3)cc2)nn1
inhibition [1]: 35.3%

Cc1cc(C#N)cc(C)c1Oc1nc(Nc2ccc(-c3cn(CCc4ccsc4)nn3)cc2)nc2ccsc12
inhibition [1]: 1.9%

Cc1cc(C#N)cc(C)c1Oc1nc(Nc2ccc(-c3cn(-c4cnc5ccccc5c4)nn3)cc2)nc2ccsc12
inhibition [1]: 20%

Cc1cc(C#N)cc(C)c1Oc1nc(Nc2ccc(-c3cn(Cc4cccc([N+](=O)[O-])c4)nn3)cc2)nc2ccsc12
inhibition [1]: 0.9%

COC(=O)Cn1cc(-c2ccc(Nc3nc(Oc4c(C)cc(C#N)cc4C)c4sccc4n3)cc2)nn1
inhibition [1]: 35.7%

COc1ccccc1Cn1cc(-c2ccc(Nc3nc(Oc4c(C)cc(C#N)cc4C)c4sccc4n3)cc2)nn1
inhibition [1]: 3.7%

Source: ChEMBL document CHEMBL5329212, “In situ click chemistry-based discovery of 1,2,3-triazole-derived diarylpyrimidines as novel HIV-1 NNRTIs by exploiting the tolerant region I in binding pocket” (Bioorg Med Chem, 2023)
